Entries after “also recorded” stand apart in the source; their conditions may differ.
What was measured:
[1] = Evaluation of bile stones dissolution capacity; conditions: 0.5% UDCA, 37° C. with constant movement, 120 hours, bile stone weights measured every 24 hours; compared with water, EDTA, MTBE, Paclitaxel, Gemcitabine
Method: Pigment bile stones were stored in water, 1% ethylenediaminetetraacetic acid (EDTA), 0.5% ursodeoxycholic acid (UDCA), 99% methyl tert-butyl ether (MTBE), 20 μg/ml of Paclitaxel, and 200 uM of Gemcitabine, observed for 120 hours at 37° C. with constant movement, and the weights of the bile stones were measured every 24 hours to evaluate bile stone dissolution capacity (FIG. 1).

[2] = system: human chemically derived hepatic progenitors (hCdHs); test: Differentiation of hCdHs into cholangiocytes (hCdH-Chols) on ABD; format: cell-based
From the text: In manufacturing a 3D artificial bile duct disclosed in the present specification, cholangiocytes (hCdH-Chols) derived from human chemically derived hepatic progenitors (hCdHs) were used. Because primary cholangiocytes from humans and other mammals are difficult to isolate and propagate in vitro, human chemically derived hepatic progenitors (hCdHs) were utilized for biliary epithelium modeling. To generate hCdHs, human adult hepatocytes isolated from healthy donor livers were directly reprogrammed into bi-potent progenitors through combinatorial treatment with two small molecules, A83-01 and CHIR99021, in the presence of a hepatocyte growth factor (HGF) as described in a recent publication (Y. Kim, K. Kang, S. B. Lee, D. Seo, S. Yoon, […]. Jang, Y. K. Jung, K. G. Lee, V. M. Factor, J. Jeong, D. Choi, J Hepatol 2019, 70, 97.). A cholangiocyte differentiation protocol was applied when hCdHs reached a passage 3. The hCdHs cultured for 14 days in a cholangiocyte differentiation medium comprising Na-taurocholate (100 uM) and CHIR99021 ([…]) in the presence of a HGF for hCdH-Chols differentiation. The ABDs comprising the inner fibrous layer electrospun using 21 G and 27 G needles by the method of Example 2 were treated with UDCA, and after 50 days, whether differentiation into cholangiocytes using human chemically derived hepatic progenitors (hCdHs) is promoted was evaluated. As a control group, a 3D ABD untreated with UDCA was compared.

C[C@H](CCC(=O)O)[C@H]1CC[C@H]2[C@@H]3[C@@H](O)C[C@@H]4C[C@H](O)CC[C@]4(C)[C@H]3CC[C@]12C [UDCA, ursodeoxycholic acid]
bile stone dissolution capacity [1]: dissolved the most; also recorded: significantly increased compared to other solvents
differentiation of hepatic progenitors (hCdHs) into cholangiocytes (hCdH-Chols) ([2]; ABD treated with UDCA, after 50 days, vs 3D ABD untreated with UDCA): promoted differentiation
attachment of cells to the bile ducts by nanofibers of the inner fibrous layer ([2]; UDCA present in inner fibrous layer of ABD vs 3D ABD untreated with UDCA): better attached cells to the bile ducts
expression of cholangiocyte markers in hCdH-Chols ([2]; after a period of differentiation): high levels

— patent US20250229006A1, “3D PRINTED ARTIFICIAL BILE DUCTS AND MANUFACTURING METHOD THEREOF” (IUCF-HYU (INDUSTRY-UNIVERSITY COOPERATION FOUNDATION …, priority 2024, published 2025)
